Measured values reported in patent US20210095322A1, “HIGH-PURITY STEVIOL GLYCOSIDES” (PureCircle USA Inc., priority 2018, published 2021).
Like-named read-outs stand apart in the source and are kept apart here. Values belong to the compound of their own block, whether it stands above or below them.

How the values were obtained:
[1] = Sweetness perception threshold (FEMA method, 2-AFC vs 1.5% sugar) in neutral water; assay type: in vivo, human; conditions: for % Frequency / PC (paired comparison count, panelists choosing the sample as sweeter): 2-AFC, n = 30
Method: A series of experiments were performed to evaluate the effect of Reb AM on taste and flavor profile. The sweetness and taste/flavor modification can influence each other in food and beverage applications. To determine the influence of the taste and flavor modification in different applications, the FEMA (Flavor and Extract Manufacturing Association) prescribes a sensory method that determines the sweetness perception threshold determination presented in Experiment 1, which is discussed below.
Experiment 1 provides the estimate of Reb AM concentration in water that barely contributes to sweetness perception. […] The summary of sweetness perception threshold for selected steviol glycosides is below in Table 11.
Therefore we selected 50 ppm of Reb AM as the recognition threshold concentration.

[2] = Solubility characteristics and solution stability in water; assay type: physicochemical; conditions: for Solubility: summary of solution stability in water
Method: Solubility characteristics were measured as follows. Prepare the following solutions in water and stir at 700 rpm for each. Add heat if necessary at 2 minutes and 30 seconds of stirring. Using a stopwatch, determine how long it takes all powder to dissolve completely and record the temperature at which it dissolves. The following table summarizes the solubility characteristics of Rebaudiosides D, M, and AM.

[3] = Isosweet determination (2-AFC) vs sucrose in acidified water, sweetness potency; assay type: in vivo, human; conditions: pH = 3.2
Method: As an example, Reb AM was evaluated.

[4] = Flavor modification of Raspberry Watermelon Coconut Water, sensory panel; assay type: in vivo, human; set-up: Sweet Intensity mean score / Bitter Intensity mean score / Astringency mean score / Coconut Flavor mean score / Watermelon Flavor mean score / Raspberry Flavor mean score / Artificial/Chemical Note mean score / Sweet Aftertaste mean score / Bitter Aftertaste mean score / Overall Liking mean score: scale not given here
Description: Thirty panel members evaluated two samples of raspberry watermelon flavored coconut water for overall acceptance and attribute intensities (sweetness, Raspberry flavor, watermelon flavor, coconut water flavor, saltiness, bitterness, and sweet aftertaste, bitter aftertaste) in two sessions. In session one, the two samples included: 1) store-bought Raspberry Watermelon Coconut Water control sample and 2) store-bought Raspberry Watermelon Coconut Water test sample containing Reb AM. The objective of the test was to determine if the addition of Reb AM affects the flavor profile of a non-alcoholic beverage.
The test objective is to determine if the flavor profile and overall acceptance of a Control sample of flavored coconut water differs from a Test sample of the same beverage containing Reb AM.

[5] = Flavor modification of chocolate flavored dairy protein shake, sensory panel; assay type: in vivo, human; set-up: Sweet Intensity mean score / Bitterness mean score / Metallic Note mean score / Cocoa Flavor mean score / Dairy Note mean score / Whey Protein Note mean score / Vanilla Note mean score / Sweet Aftertaste mean score / Bitter Aftertaste mean score / Overall Liking mean score: scale not given here
Description: Thirty trained panelists evaluated two samples of chocolate flavored dairy protein shake for overall acceptance and attribute intensities (cocoa flavor, dairy note, whey protein, vanilla, metallic, sweetness, bitterness and aftertaste). The two samples included: 1) no sugar added “Control” sample containing 300 ppm PureCircle Reb A and 2) no sugar added “Test” sample containing 300 ppm PureCircle Reb A and 50 ppm Reb AM. The objective of the test was to determine if the addition of Reb AM affects the flavor profile of a milk product.
The test objective is to determine if the flavor profile and overall acceptance of a control sample of dairy beverage application differs from a Test sample of the same beverage containing Reb AM.

[6] = Taste panel of no-calorie Lemon-lime carbonated soft drink; assay type: in vivo, human; conditions: 500 ppm in Lemon-lime CSD
Description: A group of trained and experienced taste panel members evaluated no-calorie Lemon-lime carbonated soft drink (CSD) sweetened with 500 ppm of Reb AM, Reb D, or Reb M samples.

[7] = FEMA GRAS publication; cited from earlier work
[8] = 1.5% Sucrose vs 30 ppm Reb AM in neutral water
[9] = 1.5% Sucrose vs 50 ppm Reb AM in neutral water
[10] = 1.5% Sucrose vs 70 ppm of Reb AM in neutral water
[11] = 1.5% Sucrose vs 100 ppm Reb AM in neutral water
[12] = 50 ppm Reb AM in coconut water, 95% confidence
[13] = Coconut water (raspberry/watermelon flavor) with 50 ppm of Reb AM, 30 panelists
[14] = 50 ppm Reb AM added to shake with 300 ppm Reb A, 95% confidence
[15] = NSA Chocolate Vanilla Protein Dairy Shake w Reb A & 50 ppm Reb AM, 30 panelists

SMILES: OC[C@H]1O[C@@](CO)(O[C@H]2O[C@H](CO)[C@@H](O)[C@H](O)[C@H]2O)[C@@H](O)[C@@H]1O [Sucrose]
% Frequency [1, 8]: 96.7% | PC (paired comparison count, panelists choosing the sample as sweeter) [1, 8]: 29 | % Frequency [1, 9]: 76.7% | PC (paired comparison count, panelists choosing the sample as sweeter) [1, 9]: 23 | % Frequency [1, 10]: 30% | PC (paired comparison count, panelists choosing the sample as sweeter) [1, 10]: 9 | % Frequency [1, 11]: 10% | PC (paired comparison count, panelists choosing the sample as sweeter) [1, 11]: 3

Comment on solubility ([2]; Test Conc. 1%): Easily Soluble | Dissolution in water (Heated) ([2]; Test Conc. 1%): No heat needed | Dissolution water (Ambient), stirring time ([2]; Test Conc. 1%): Stirred for 3 min | Solution after 24 hrs ([2]; Test Conc. 1%): Clear | Solution after 48 hrs ([2]; Test Conc. 1%): Clear | Comment on solubility ([2]; Test Conc. 5%): Easily Soluble | Dissolution in water (Heated), temperature ([2]; Test Conc. 5%): 45 C. | Solution after 24 hrs ([2]; Test Conc. 5%): Clear | Solution after 48 hrs ([2]; Test Conc. 5%): Clear | Comment on solubility ([2]; Test Conc. 10%): Moderately | Dissolution in water (Heated), temperature ([2]; Test Conc. 10%): 54 C. | Solution after 24 hrs ([2]; Test Conc. 10%): Clear | Solution after 48 hrs ([2]; Test Conc. 10%): Slight | Solubility [2]: 10%
SMILES: C=C1C[C@@]23CC[C@H]4[C@@](C)(CCC[C@@]4(C)C(=O)O[C@@H]4O[C@H](CO)[C@@H](O)[C@H](O[C@@H]5O[C@H](CO)[C@@H](O)[C@H](O)[C@H]5O)[C@H]4O[C@@H]4O[C@H](CO)[C@@H](O)[C@H](O)[C@H]4O)[C@@H]2CC[C@]1(O[C@@H]1O[C@H](CO)[C@@H](O)[C@H](O)[C@H]1O[C@@H]1O[C@H](CO)[C@@H](O)[C@H](O)[C@H]1O)C3 [Reb AM, Rebaudioside AM]
Solubility compared with other steviol glycosides ([2]; water): significantly higher solubility than other minor and major steviol glycosides | Sweetness Equivalent (ppm) in Water ([3]; 2.5% SE): 150 ppm | Sweetness Potency in Water ([3]; 2.5% SE): 167 x sugar equivalent | Sweetness Equivalent (ppm) in Water ([3]; 5.0% SE): 365 ppm | Sweetness Potency in Water ([3]; 5.0% SE): 137 x sugar equivalent | Sweetness Equivalent (ppm) in Water ([3]; 7.5% SE): 869 ppm | Sweetness Potency in Water ([3]; 7.5% SE): 86 x sugar equivalent | Sweetness Equivalent (ppm) in Water ([3]; 10.0% SE): 1750 ppm | Sweetness Potency in Water ([3]; 10.0% SE): 57 x sugar equivalent | % Frequency [1, 8]: 3.3% | PC (paired comparison count, panelists choosing the sample as sweeter) [1, 8]: 1 | % Frequency [1, 9]: 23.3% | PC (paired comparison count, panelists choosing the sample as sweeter) [1, 9]: 7 | % Frequency [1, 10]: 70% | PC (paired comparison count, panelists choosing the sample as sweeter) [1, 10]: 21 | % Frequency [1, 11]: 90% | PC (paired comparison count, panelists choosing the sample as sweeter) [1, 11]: 27 | Sweetness perception compared with 1.5% sugar solution ([1]; 50 ppm in water): significantly lower | Sweetness Perception Threshold Concentration ([1]; neutral water, vs 1.5% sugar solution): 50 ppm | sweet aftertaste intensity vs control ([4]; 50 ppm Reb AM in coconut water, 90% confidence): significantly lower | coconut water flavor vs control [4, 12]: significantly higher | mango peach flavor vs control [4, 12]: significantly higher | overall liking vs control [4, 12]: significantly higher | watermelon flavor vs control [4, 12]: significantly higher | Artificial/Chemical Note mean score [4, 13]: 2.55 | Astringency mean score [4, 13]: 1.10 | Bitter Aftertaste mean score [4, 13]: 0.29 | Bitter Intensity mean score [4, 13]: 0.24 | Coconut Flavor mean score [4, 13]: 5.11 | Overall Liking mean score [4, 13]: 5.04 | Raspberry Flavor mean score [4, 13]: 0.95 | Sweet Aftertaste mean score [4, 13]: 1.33 | Sweet Intensity mean score [4, 13]: 4.44 | Watermelon Flavor mean score [4, 13]: 4.41 | impact on sweetness intensity ([5]; 50 ppm Reb AM added to shake with 300 ppm Reb A): no significant impact | bitter aftertaste vs control [5, 14]: lower | bitterness vs control [5, 14]: significantly lower | cocoa flavor vs control [5, 14]: significantly higher | dairy notes vs control [5, 14]: significantly higher | metallic note vs control [5, 14]: significantly lower | overall liking vs control [5, 14]: significantly higher | vanilla flavor vs control [5, 14]: significantly higher | whey protein vs control [5, 14]: significantly lower | Bitter Aftertaste mean score [5, 15]: 0.77 | Bitterness mean score [5, 15]: 1.46 | Cocoa Flavor mean score [5, 15]: 4.55 | Dairy Note mean score [5, 15]: 4.59 | Metallic Note mean score [5, 15]: 1.48 | Overall Liking mean score [5, 15]: 5.59 | Sweet Aftertaste mean score [5, 15]: 1.65 | Sweet Intensity mean score [5, 15]: 5.98 | Vanilla Note mean score [5, 15]: 2.52 | Whey Protein Note mean score [5, 15]: 4.32 | bitterness compared to CSD with Reb D or Reb M [6]: significantly less | sweetness compared to CSD with Reb D or Reb M [6]: less sweet | sweetness lingering compared to CSD with Reb D or Reb M [6]: significantly less

Comment on solubility ([2]; Test Conc. 0.1%): Easily Soluble | Dissolution in water (Heated), time ([2]; Test Conc. 0.1%): No heat needed | Dissolution water (Ambient), time of agitation ([2]; Test Conc. 0.1%): 12 minutes of | Solution after 24 hrs ([2]; Test Conc. 0.1%): Clear | Solution after 48 hrs ([2]; Test Conc. 0.1%): Clear | Comment on solubility ([2]; Test Conc. 0.3%): Moderately | Dissolution in water (Heated), temperature ([2]; Test Conc. 0.3%): Heated to 99 deg C. deg. C. | Solution after 24 hrs ([2]; Test Conc. 0.3%): Clear | Solution after 48 hrs ([2]; Test Conc. 0.3%): Slight | Comment on solubility ([2]; Test Conc. 0.5%): Requires | Dissolution in water (Heated), temperature ([2]; Test Conc. 0.5%): 87 deg. C. with | Dissolution in water (Heated), time ([2]; Test Conc. 0.5%): agitation. 16 min | Solution after 24 hrs ([2]; Test Conc. 0.5%): Moderate | Solubility [2]: 0.3%
SMILES: C=C1C[C@@]23CC[C@H]4[C@@](C)(CCC[C@@]4(C)C(=O)O[C@@H]4O[C@H](CO)[C@@H](O)[C@H](O[C@@H]5O[C@H](CO)[C@@H](O)[C@H](O)[C@H]5O)[C@H]4O[C@@H]4O[C@H](CO)[C@@H](O)[C@H](O)[C@H]4O)[C@@H]2CC[C@]1(O[C@@H]1O[C@H](CO)[C@@H](O)[C@H](O[C@@H]2O[C@H](CO)[C@@H](O)[C@H](O)[C@H]2O)[C@H]1O[C@@H]1O[C@H](CO)[C@@H](O)[C@H](O)[C@H]1O)C3 [Reb M, rebaudioside M]
Sweetness Equivalent (ppm) in Water ([3]; 2.5% SE): 84 ppm | Sweetness Potency in Water ([3]; 2.5% SE): 298 x sugar equivalent | Sweetness Equivalent (ppm) in Water ([3]; 5.0% SE): 209 ppm | Sweetness Potency in Water ([3]; 5.0% SE): 239 x sugar equivalent | Sweetness Equivalent (ppm) in Water ([3]; 7.5% SE): 418 ppm | Sweetness Potency in Water ([3]; 7.5% SE): 179 x sugar equivalent | Sweetness Equivalent (ppm) in Water ([3]; 10.0% SE): 832 ppm | Sweetness Potency in Water ([3]; 10.0% SE): 90 x sugar equivalent | Sweetness Perception Threshold Concentration [7]: 24 ppm

Comment on solubility ([2]; Test Conc. 0.05%): Easily Soluble | Dissolution in water (Heated), temperature ([2]; Test Conc. 0.05%): temp: 39 deg. C. | Solution after 24 hrs ([2]; Test Conc. 0.05%): Clear | Solution after 48 hrs ([2]; Test Conc. 0.05%): Clear | Comment on solubility ([2]; Test Conc. 0.1%): Easily Soluble | Dissolution in water (Heated), temperature ([2]; Test Conc. 0.1%): temp: 72 deg. C. | Solution after 24 hrs ([2]; Test Conc. 0.1%): Clear | Solution after 48 hrs ([2]; Test Conc. 0.1%): Clear | Comment on solubility ([2]; Test Conc. 0.3%): Requires | Dissolution in water (Heated), temperature ([2]; Test Conc. 0.3%): 78.5 deg. C. | Solubility [2]: 0.1%
SMILES: C=C1C[C@@]23CC[C@H]4[C@@](C)(CCC[C@@]4(C)C(=O)O[C@@H]4O[C@H](CO)[C@@H](O)[C@H](O)[C@H]4O[C@@H]4O[C@H](CO)[C@@H](O)[C@H](O)[C@H]4O)[C@@H]2CC[C@]1(O[C@@H]1O[C@H](CO)[C@@H](O)[C@H](O[C@@H]2O[C@H](CO)[C@@H](O)[C@H](O)[C@H]2O)[C@H]1O[C@@H]1O[C@H](CO)[C@@H](O)[C@H](O)[C@H]1O)C3 [Reb D, rebaudioside D]
Sweetness Equivalent (ppm) in Water ([3]; 2.5% SE): 62 ppm | Sweetness Potency in Water ([3]; 2.5% SE): 403 x sugar equivalent | Sweetness Equivalent (ppm) in Water ([3]; 5.0% SE): 212 ppm | Sweetness Potency in Water ([3]; 5.0% SE): 236 x sugar equivalent | Sweetness Equivalent (ppm) in Water ([3]; 7.5% SE): 500 ppm | Sweetness Potency in Water ([3]; 7.5% SE): 150 x sugar equivalent | Sweetness Equivalent (ppm) in Water ([3]; 10.0% SE): 926 ppm | Sweetness Potency in Water ([3]; 10.0% SE): 108 x sugar equivalent | Sweetness Perception Threshold Concentration [7]: 32.5 ppm
